Measurements: patent publication US20100323990A1, “SHIP 1 MODULATOR PRODRUGS” (THE UNIVERSITY OF BRITISH COLUMBIA, priority 2006, published 2010)

Tested on: Mast cells
Test: Stimulation of mast cells by FcεRI crosslinking (Assay 4)
Format: cell-based
Settings: test compound 30 min prior to DNP-HSA
Protocol: Assay 1) In vitro testing in a SHIP enzyme assay. Test compounds were dissolved in a suitable solvent (e.g. EtOH, DMSO and others) and diluted into aqueous buffer (20 mM Tris HCl, pH 7.5 and 10 mM MgCl2). SHIP enzyme assays were performed in 96-well microtitre plates with 10 ng of enzyme/well in a total volume of 25 μL of 20 mM Tris HCl, pH 7.5 and 10 mM MgCl2. SHIP enzyme was incubated with test extracts (provided in solvent) or vehicle for 15 min at 23° C. before the addition of 100 μM inositol-1,3,4,5-tetrakisphosphate (Echelon Biosciences Inc, Salt Lake City, Utah). After 20 min at 37° C. and the amount of inorganic phosphate released assessed by the addition of Malachite Green reagent and absorbance measurement at 650 nm. Assay 2) Macrophage TNF-α production. J774.1a macrophage cells were treated with 10 μg/mL of test compound dissolved in solvent (e.g. cyclodextran) for 40 minutes prior to the addition of 100 ng/mL LPS. Culture supernatants were collected after 2 hr and 5 hr for TNF-α determination by ELISA. Assay 3) Macrophage TNF-α NO assay. J774.1a macrophage cells were treated with 10 μg/ml of test compound dissolved in solvent for 40 minutes prior to the addition of LPS. Culture supernatants were collected after 24 hr. for determination of NO concentration using the Griess reagent. Assay 4) Stimulation of mast cells by FcεRI crosslinking. Mast cells were pre-loaded overnight in BMMC medium lacking IL-3 with 0.1 μg/ml anti-DNP IgE (SPE-7, Sigma, Oakville, Ont). For calcium flux measurements, cells were incubated with 2 μM fura 2-acetoxymethyl ester (Molecular Probes, Eugene, Oreg.) in Tyrode's buffer at 23° C. for 45 min. Cells were then washed and incubated in the presence of the test compound 30 min prior to stimulation with the indicated concentration of DNP-human serum albumin (DNP-HSA). Calcium influx was monitored by spectrofluorometry as described previously. For analysis of intracellular signaling, cells were pre-loaded with anti-DNP IgE as above, pre-treated with the test compound for 30 min at 37° C. and stimulated with 20 ng/ml DNP-HSA for 5 min. Total cell lysates were then prepared and analyzed for phospho-PKB, phospho-p38^MAPK, phospho-MAPK, Grb-2 (Cell Signalling, Mississauga, Ont) and SHIP^6 by immunoblot analysis. Assay 5) Mouse acute cutaneous anaphylaxis model. […] The ability of SHIP activators to reduce tumor cell survival was assessed in MM cell lines treated with the test compound. The lines OPM1, OPM2, MM.1S and RPMI 8226 were plated at a density of 1×10^5 cells/mL in 200 μL of medium with various concentrations of the test compound, and viable cell numbers were determined on day 3 and day 5 by trypan blue exclusion. […]

With `Cc1cc(O)cc2c1[C@]1(C)CCC3C(C)(C)CCC[C@]3(C)[C@H]1C2` (stereo partly shown) [Compound 100] as the compound, how does the “Assay 4: Stimulation of mast cells by FcεRI crosslinking, desired activity” value read?
Its value is “+”.
